What was measured:
[1] = target: T1, Calcium/calmodulin-dependent protein kinase type IV (Homo sapiens) (UniProt Q16566); assay: Inhibition of human full length CAMK4 expressed in baculovirus assessed as substrate phosphorylation using fluorescence-labelled peptides as substrate at 0.2 uM after 90 mins by microfluidic peptide phosphorylation assay
T1 sequence (whole entry): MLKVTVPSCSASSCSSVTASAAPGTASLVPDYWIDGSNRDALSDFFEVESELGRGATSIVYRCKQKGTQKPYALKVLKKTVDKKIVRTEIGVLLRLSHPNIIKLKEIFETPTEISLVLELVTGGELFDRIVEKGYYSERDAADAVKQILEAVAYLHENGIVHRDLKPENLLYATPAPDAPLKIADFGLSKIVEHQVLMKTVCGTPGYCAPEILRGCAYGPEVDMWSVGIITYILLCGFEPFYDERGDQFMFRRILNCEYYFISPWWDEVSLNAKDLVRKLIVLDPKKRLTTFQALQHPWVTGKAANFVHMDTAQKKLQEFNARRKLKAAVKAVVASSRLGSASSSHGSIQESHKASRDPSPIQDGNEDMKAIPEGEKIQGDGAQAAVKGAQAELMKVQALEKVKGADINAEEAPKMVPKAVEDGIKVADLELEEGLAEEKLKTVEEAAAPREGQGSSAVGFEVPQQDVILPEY

[2] = target: Epidermal growth factor receptor (Homo sapiens) (UniProt P00533); assay: Inhibition of human EGFR catalytic domain expressed in baculovirus assessed as substrate phosphorylation using fluorescence-labelled peptides as substrate at 420 uM after 90 mins by microfluidic peptide phosphorylation assay
Sequence of Epidermal growth factor receptor (Homo sapiens) (P00533 whole entry, the tested form may be a part): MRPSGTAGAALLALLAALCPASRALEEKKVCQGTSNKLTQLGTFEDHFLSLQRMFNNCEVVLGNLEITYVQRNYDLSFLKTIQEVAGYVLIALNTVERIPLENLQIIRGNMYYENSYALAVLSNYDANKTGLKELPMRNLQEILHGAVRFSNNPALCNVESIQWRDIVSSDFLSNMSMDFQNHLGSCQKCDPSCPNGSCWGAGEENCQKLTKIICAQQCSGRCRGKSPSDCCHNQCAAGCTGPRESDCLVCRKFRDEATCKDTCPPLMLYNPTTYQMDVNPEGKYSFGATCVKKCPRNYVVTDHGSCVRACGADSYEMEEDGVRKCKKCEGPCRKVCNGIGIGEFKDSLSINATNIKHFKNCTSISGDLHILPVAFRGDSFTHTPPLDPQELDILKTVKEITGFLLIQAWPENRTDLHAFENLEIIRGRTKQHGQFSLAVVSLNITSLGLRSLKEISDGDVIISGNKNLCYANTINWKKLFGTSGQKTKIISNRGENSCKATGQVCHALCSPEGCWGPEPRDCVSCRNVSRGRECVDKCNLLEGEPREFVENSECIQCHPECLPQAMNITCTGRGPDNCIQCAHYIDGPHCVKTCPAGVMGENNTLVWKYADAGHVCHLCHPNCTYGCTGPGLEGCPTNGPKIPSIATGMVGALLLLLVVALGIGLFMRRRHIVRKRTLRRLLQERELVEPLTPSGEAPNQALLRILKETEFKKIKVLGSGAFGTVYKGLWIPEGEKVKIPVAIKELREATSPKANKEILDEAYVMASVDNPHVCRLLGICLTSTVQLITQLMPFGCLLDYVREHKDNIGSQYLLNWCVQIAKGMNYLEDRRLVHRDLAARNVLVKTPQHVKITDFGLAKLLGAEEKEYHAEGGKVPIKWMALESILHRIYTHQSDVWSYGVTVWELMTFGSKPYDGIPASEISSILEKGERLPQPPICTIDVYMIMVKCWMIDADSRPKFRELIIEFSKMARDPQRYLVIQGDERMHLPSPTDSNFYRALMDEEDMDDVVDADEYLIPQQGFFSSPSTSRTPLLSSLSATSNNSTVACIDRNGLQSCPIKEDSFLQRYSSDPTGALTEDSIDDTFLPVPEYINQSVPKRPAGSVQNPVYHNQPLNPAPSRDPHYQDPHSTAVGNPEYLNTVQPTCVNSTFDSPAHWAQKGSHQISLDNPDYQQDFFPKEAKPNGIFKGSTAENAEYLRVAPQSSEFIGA

[3] = target: T2, Inhibitor of nuclear factor kappa-B kinase subunit beta (Homo sapiens) (UniProt O14920); assay: Inhibition of human full length IKK beta expressed in baculovirus assessed as substrate phosphorylation using fluorescence-labelled peptides as substrate at 2 uM after 90 mins by microfluidic peptide phosphorylation assay
T2 sequence (whole entry): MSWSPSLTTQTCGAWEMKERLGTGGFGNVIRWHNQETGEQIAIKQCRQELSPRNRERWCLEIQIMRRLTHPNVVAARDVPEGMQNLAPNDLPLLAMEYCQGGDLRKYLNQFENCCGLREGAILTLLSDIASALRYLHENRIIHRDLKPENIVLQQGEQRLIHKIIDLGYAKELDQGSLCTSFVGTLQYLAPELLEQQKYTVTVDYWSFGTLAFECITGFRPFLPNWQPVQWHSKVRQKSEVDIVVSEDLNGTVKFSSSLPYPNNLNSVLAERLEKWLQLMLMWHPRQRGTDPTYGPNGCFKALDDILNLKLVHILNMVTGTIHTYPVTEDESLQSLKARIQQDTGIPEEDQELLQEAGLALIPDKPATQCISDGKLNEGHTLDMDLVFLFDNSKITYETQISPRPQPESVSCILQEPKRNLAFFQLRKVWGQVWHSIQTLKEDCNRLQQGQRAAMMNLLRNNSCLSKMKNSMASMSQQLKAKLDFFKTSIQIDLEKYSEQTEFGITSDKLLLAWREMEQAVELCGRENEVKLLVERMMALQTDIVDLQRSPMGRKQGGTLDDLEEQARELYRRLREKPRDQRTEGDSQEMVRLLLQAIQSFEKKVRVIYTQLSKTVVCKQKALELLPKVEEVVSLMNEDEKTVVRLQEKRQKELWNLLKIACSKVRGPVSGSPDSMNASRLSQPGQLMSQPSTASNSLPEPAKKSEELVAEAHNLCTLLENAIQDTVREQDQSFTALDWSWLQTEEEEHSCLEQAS

[4] = target: Ribosomal protein S6 kinase alpha-3 (Homo sapiens) (UniProt P51812); assay: Inhibition of human full length RSK2 expressed in baculovirus assessed as substrate phosphorylation using fluorescence-labelled peptides as substrate at 95 uM after 90 mins by microfluidic peptide phosphorylation assay
Sequence of Ribosomal protein S6 kinase alpha-3 (Homo sapiens) (P51812 whole entry): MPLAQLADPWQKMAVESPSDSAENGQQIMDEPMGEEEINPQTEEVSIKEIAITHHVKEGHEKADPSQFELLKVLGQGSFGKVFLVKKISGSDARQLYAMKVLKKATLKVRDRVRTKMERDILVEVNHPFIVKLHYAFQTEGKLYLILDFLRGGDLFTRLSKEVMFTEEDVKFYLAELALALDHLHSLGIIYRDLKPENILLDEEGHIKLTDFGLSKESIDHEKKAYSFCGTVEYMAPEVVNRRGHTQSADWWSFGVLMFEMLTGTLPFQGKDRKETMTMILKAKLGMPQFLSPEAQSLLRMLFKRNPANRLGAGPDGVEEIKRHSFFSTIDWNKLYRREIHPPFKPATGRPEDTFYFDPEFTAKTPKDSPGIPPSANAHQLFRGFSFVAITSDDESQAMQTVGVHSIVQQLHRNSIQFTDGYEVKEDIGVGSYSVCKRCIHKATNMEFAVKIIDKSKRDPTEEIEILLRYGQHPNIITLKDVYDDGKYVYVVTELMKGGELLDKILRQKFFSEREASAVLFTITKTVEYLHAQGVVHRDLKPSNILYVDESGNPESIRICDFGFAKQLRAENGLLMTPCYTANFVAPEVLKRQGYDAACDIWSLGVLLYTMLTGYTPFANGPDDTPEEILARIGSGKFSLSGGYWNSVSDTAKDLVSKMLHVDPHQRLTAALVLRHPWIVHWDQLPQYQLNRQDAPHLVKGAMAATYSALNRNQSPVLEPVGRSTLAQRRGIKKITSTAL

[5] = target: T3, Cytoplasmic tyrosine-protein kinase BMX (Homo sapiens) (UniProt P51813); assay: Inhibition of human full length BMX expressed in baculovirus assessed as substrate phosphorylation using fluorescence-labelled peptides as substrate at 95 uM after 90 mins by microfluidic peptide phosphorylation assay
T3 sequence (whole entry): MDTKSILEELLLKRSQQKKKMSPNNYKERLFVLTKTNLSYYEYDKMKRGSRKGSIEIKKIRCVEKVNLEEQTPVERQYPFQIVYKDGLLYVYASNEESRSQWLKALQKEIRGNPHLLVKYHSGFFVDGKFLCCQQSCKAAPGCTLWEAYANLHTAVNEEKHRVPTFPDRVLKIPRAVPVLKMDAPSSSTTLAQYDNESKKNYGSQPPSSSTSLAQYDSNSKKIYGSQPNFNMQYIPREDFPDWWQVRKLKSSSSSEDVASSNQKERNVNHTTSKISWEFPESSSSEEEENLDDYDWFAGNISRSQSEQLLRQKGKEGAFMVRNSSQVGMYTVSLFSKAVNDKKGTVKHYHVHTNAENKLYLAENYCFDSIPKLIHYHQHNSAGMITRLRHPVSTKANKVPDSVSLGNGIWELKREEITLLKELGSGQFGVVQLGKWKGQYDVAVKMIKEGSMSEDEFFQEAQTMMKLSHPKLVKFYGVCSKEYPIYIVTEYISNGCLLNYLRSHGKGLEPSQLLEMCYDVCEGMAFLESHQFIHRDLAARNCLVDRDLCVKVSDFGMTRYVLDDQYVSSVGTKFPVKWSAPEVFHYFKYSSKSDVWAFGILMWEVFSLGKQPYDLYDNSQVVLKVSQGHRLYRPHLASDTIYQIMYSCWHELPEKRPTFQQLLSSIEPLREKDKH

[6] = target: Fibroblast growth factor receptor 3 (Homo sapiens) (UniProt P22607); assay: Inhibition of human FGFR3 catalytic domain expressed in baculovirus assessed as substrate phosphorylation using fluorescence-labelled peptides as substrate at 8 uM after 90 mins by microfluidic peptide phosphorylation assay
Sequence of Fibroblast growth factor receptor 3 (Homo sapiens) (P22607 23-806 limits assumed): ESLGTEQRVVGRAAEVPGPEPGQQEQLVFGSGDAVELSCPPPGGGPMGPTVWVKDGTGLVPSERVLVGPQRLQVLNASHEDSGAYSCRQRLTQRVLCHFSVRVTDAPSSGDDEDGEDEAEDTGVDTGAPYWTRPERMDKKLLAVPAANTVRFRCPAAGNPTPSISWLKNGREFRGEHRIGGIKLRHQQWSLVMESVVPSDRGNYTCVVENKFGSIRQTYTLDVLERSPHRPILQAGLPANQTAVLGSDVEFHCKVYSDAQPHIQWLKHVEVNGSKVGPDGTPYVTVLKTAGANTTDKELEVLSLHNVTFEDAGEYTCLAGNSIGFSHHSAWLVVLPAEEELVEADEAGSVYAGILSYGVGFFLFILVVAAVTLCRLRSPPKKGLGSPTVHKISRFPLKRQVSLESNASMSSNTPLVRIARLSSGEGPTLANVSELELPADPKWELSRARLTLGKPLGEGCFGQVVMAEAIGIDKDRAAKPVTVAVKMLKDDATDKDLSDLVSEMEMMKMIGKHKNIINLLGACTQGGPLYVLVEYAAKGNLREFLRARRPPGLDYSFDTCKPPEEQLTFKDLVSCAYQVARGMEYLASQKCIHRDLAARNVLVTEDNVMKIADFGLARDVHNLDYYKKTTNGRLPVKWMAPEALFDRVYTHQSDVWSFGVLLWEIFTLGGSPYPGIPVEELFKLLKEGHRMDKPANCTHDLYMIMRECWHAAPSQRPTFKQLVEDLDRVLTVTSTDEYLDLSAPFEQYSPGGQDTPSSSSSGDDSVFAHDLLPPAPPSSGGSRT

[7] = target: Insulin receptor (Homo sapiens) (UniProt P06213); assay: Inhibition of human INSR catalytic domain expressed in baculovirus assessed as substrate phosphorylation using fluorescence-labelled peptides as substrate at 70 uM after 90 mins by microfluidic peptide phosphorylation assay
[8] = target: Mitogen-activated protein kinase 3 (Homo sapiens) (UniProt P27361); assay: Inhibition of human full length ERK1 expressed in Escherichia coli cell assessed as substrate phosphorylation using fluorescence-labelled peptides as substrate at 1000 uM after 90 mins by microfluidic peptide phosphorylation assay
Sequence of Mitogen-activated protein kinase 3 (Homo sapiens) (P27361 whole entry): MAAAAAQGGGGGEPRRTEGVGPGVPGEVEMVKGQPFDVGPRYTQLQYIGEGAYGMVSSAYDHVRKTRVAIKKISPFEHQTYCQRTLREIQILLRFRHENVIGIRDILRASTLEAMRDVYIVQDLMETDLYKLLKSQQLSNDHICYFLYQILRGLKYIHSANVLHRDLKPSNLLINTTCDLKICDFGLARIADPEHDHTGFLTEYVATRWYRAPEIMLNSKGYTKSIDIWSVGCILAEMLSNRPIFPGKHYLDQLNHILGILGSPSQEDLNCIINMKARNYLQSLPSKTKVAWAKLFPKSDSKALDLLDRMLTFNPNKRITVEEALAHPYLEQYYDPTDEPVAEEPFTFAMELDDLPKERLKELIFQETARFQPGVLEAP

Structure (SMILES): Clc1ccc(C2(c3ccc(-c4ncnc5[nH]cnc45)cc3)CCNCC2)cc1
- inhibition [1]: 74%

Structure (SMILES): c1nc(N2CCOCC2)c2nc[nH]c2n1
- inhibition [2]: 29%

Structure (SMILES): NC1CCN(c2ncnc3[nH]ccc23)CC1
- inhibition [3]: 1%

Structure (SMILES): NCCc1ccc(-c2ncnc3[nH]cnc23)cc1
- inhibition [4]: 87.5%
- inhibition [5]: 0%

Structure (SMILES): NCC1CCN(c2ncnc3[nH]ccc23)CC1
- inhibition [6]: 0.5%

Structure (SMILES): CNCc1ccc(-c2ncnc3[nH]cnc23)cc1
- inhibition [7]: 0%

Structure (SMILES): c1cnc2[nH]ccc2c1
- inhibition [8]: 36%

— ChEMBL document CHEMBL3132769, “Fragment growing to retain or alter the selectivity of anchored kinase hinge-binding fragments” (Medchemcomm, 2014)
